Reference: US10683278B2 (JINAN UNIVERSITY, priority 2015, dated 2020)

Experiments:
MDA-MB-231 cells [1] = assay: Immunofluorescence, EMT marker proteins in TGF-β1-induced MDA-MB-231 cells; assay type: cell-based; conditions: TGF-β1 (10 ng/ml); for expression of E-cadherin / expression of N-cadherin: 96 hours; for phosphorylation level of AXL: FIGS. 3 and 4
Description: Immunofluorescence experiments were used to determine the effect of the compounds on EMT marker proteins.
MDA-MB-231 cells were seeded onto a glass slide pre-placed in a 6-well plate, and then treated with compounds to be tested at different concentrations (0.04, 0.2, 1.5 μM) with or without TGF-β1 (10 ng/ml) for 96 hours. At room temperature, the cells were fixed with a 4% formaldehyde solution for 15 minutes, treated with 0.5% Triton X-100 for 10 minutes, and blocked with PBS solution containing 3% goat serum albumin for one hour, and then incubated with antibodies against E-cadherin and N-cadherin (1:1000; Abeam, ab10983) for 1.5 hours at room temperature. The cells were then washed with PBST and co-incubated with Alexa Fluor 555 labeled rabbit secondary antibody (4413; CST, USA) or Alexa Fluor 488 labeled murine secondary antibody (4408; CST, USA) for one hour at room temperature in the dark. Cell nuclei were stained with ProLong Gold antifade reagent (P36931; Invitrogen, USA) for 5 minutes, glass slides were covered with pieces of glass, and samples were observed using a laser scanning confocal microscope (Zeiss 710; Germany).

MDA-MB-231 cells [2] = assay: Wound-healing and transwell invasion and migration of MDA-MB-231 cells; assay type: cell-based; conditions: FIGS. 5 and 6
Description: Compounds were tested for their effects on EMT using routine transwell and wound-healing experiments.
MDA-MB-231 breast cancer cells were inoculated into a 6-well plate in 5×10^5 cells/well, and when the cells occupied 100% of the medium, the medium was removed, and a scratch of a constant width was drawn in the middle of the monolayer cell with a 200-μL pipette tip. The cells were washed three times with phosphate buffered saline (PBS) to remove cell debris, followed by addition of 2% FBS with or without TGF-β1 (10 ng/mL) and substances to be tested at different concentrations, and cultured in RPMI-1640 for 24 hours. At the time points of 0 and 24 hour, three scratch areas were selected, and examined and photographed using a phase contrast inverted fluorescence microscopy (CKX41; Olympus) and Image-ProPlus image capture software. The degree of scratch closure was calculated using Adobe Photoshop 7.0.1 software (Adobe Systems Inc., San Jose, Calif.). The final result is determined by averaging three results. […]
1. Cells were trypsinized and centrifuged, then resuspended and counted, and resuspended with serum-free medium, diluted to 5×10^4 to 5×10^5 cells/mL; AXL inhibitor solution at different concentrations were prepared with the cell suspension, and added into the upper chamber, and 800 μL of a medium containing 10% FBS was added into the lower chamber. […]

4T1 cells = assay: In vivo metastasis of 4T1 xenografts; conditions: BALB/c mice, 4T1 subcutaneous, oral 30 and 90 mg/kg per day, 21 days
Description: BALB/c mice were selected and 4T1 cells (0.5×10^6/mouse) were inoculated subcutaneously on their right sides. Twenty-four days after inoculation, the mice were randomly divided into treatment and control groups (10 in each group). The mice in each group were orally administered for 21 days, and the drug dose in the treatment group was 30 mg/kg and 90 mg/kg of compound 2-lin per day, respectively. The mice were measured for body weight and tumor volume every two days. After the mice reached the end of administration, the liver tissues of mice were excised and collected, fixed with 10% formaldehyde solution, embedded in paraffin, sectioned, and stained with eosin. Microscopic examination of micrometastases in at least three fields of view was performed and the number of liver micrometastases was calculated.
The tumor volume is calculated by the formula of TV=W^2(L/2), wherein L is the length and W is the width.

SMILES	expression of E-cadherin (MDA-MB-231 cells [1])	expression of N-cadherin (MDA-MB-231 cells [1])	phosphorylation level of AXL (MDA-MB-231 cells [1])	invasion and migration of MDA-MB-231 cells induced by TGF-β1 (MDA-MB-231 cells [2])	growth of in situ tumor (4T1 cells)	number and size of liver metastasis (4T1 cells)
CCc1ccc2c(c1)c(=O)c(C(=O)Nc1ccc(Oc3ncnc4[nH]cc(-c5ccccc5)c34)c(F)c1)c(C)n2C [TL4800075, 6-ethyl-N-(3-fluoro-4-((5-phenyl-7H-pyrrolo[2,3-d]pyrimidin-4-yl)oxy)phenyl)-1,2-dimethyl-4-oxo-1,4-dihydroquinoline-3-carboxamide]	significantly upregulate	down-regulate	inhibit the phosphorylation level of AXL in a dose-dependent manner	inhibit the invasion and migration of breast cancer MDA-MB-231 cells induced by TGF-β1 in a dose-dependent manner	–	–
CCc1ccc2c(c1)c(=O)c(C(=O)Nc1ccc(Oc3ncnc4cc(OC)c(OC)cc34)c(F)c1)c(C)n2C [TL4800191, N-(4-(6,7-dimethoxyquinazolin-4-yloxy)-3-fluorophenyl)-6-ethyl-1,2-dimethyl-4-oxo-1,4-dihydroquinoline-3-carboxamide]	significantly upregulate	down-regulate	inhibit the phosphorylation level of AXL in a dose-dependent manner	inhibit the invasion and migration of breast cancer MDA-MB-231 cells induced by TGF-β1 in a dose-dependent manner	no obvious inhibitory effect	inhibit the number and size of liver metastasis in a dose-dependent manner
